These results are taken from ChEMBL document CHEMBL4014340, “Identification of a Potent, Selective, and Efficacious Phosphatidylinositol 3-Kinase δ (PI3Kδ) Inhibitor for the Treatment of Immunological Disorders” (J Med Chem, 2017).

What is called half-life is the time needed for the level to fall by half in the phase considered. Lower therefore signals rapid decline. As usually defined, the AUC(0-t) is the area under the concentration-time curve up to a stated or last time point. Low readings indicate less exposure, high ones more exposure. Broadly, the Cmax is the maximum level reached in the sampled fluid or tissue.

Data set [1] in a line: Metabolic stability in human liver microsomes assessed as parent compound remaining at 0.5 uM preincubated for 6 mins followed by NADPH addition measured after 10 mins by LC-MS/MS analysis. The data set is classed as ADME, microsome. Particulars: read-out: Stability. On the technique in general: Liver microsomes are vesicles of endoplasmic reticulum, rich in cytochrome P450 enzymes.

The nature of data set [2]: Metabolic stability in rat liver microsomes assessed as parent compound remaining at 0.5 uM preincubated for 6 mins followed by NADPH addition measured after 10 mins by LC-MS/MS analysis. The conditions noted are these: read-out: Stability. The data set is classed as ADME, microsome.
The nature of data set [3]: Metabolic stability in mouse liver microsomes assessed as parent compound remaining at 0.5 uM preincubated for 6 mins followed by NADPH addition measured after 10 mins by LC-MS/MS analysis. The data set is classed as ADME, microsome. The conditions noted are these: read-out: Stability.
A short description of data set [4]: Half life in human liver microsomes aat 0.5 uM preincubated for 6 mins followed by NADPH addition measured after 10 mins by LC-MS/MS analysis. The data set is classed as ADME, microsome.
The nature of data set [5]: Half life in rat liver microsomes aat 0.5 uM preincubated for 6 mins followed by NADPH addition measured after 10 mins by LC-MS/MS analysis. The data set is classed as ADME, microsome.
Data set [6] in a line: Half life in mouse liver microsomes aat 0.5 uM preincubated for 6 mins followed by NADPH addition measured after 10 mins by LC-MS/MS analysis. The data set is classed as ADME, microsome.
Data set [7] is described as follows: AUC (0 to 24 hrs) in Balb/c mouse at 30 mg/kg, po. The data set is classed as ADME, organism-based. Further details: dose 30 mg/kg, time < 24 hr, route oral. The conditions noted are these: in vivo.
Data set [8] in a line: AUC (0 to 24 hrs) in Balb/c mouse at 100 mg/kg, po. The data set is classed as ADME, organism-based. More on the design: dose 100 mg/kg, time < 24 hr, route oral. The conditions noted are these: in vivo.
Data set [9] is described as follows: Cmax in Balb/c mouse at 10 mg/kg, po. The data set is classed as ADME, organism-based. More on the design: dose 10 mg/kg, route oral. The conditions noted are these: in vivo.
Data set [10] in a line: AUC (0 to 24 hrs) in Balb/c mouse at 10 mg/kg, po. The conditions noted are these: in vivo. The data set is classed as ADME, organism-based. More on the design: time < 24 hr, dose 10 mg/kg, route oral.

Structures are written as SMILES.

Consider `CC(=O)N1C[C@@H](C)N(c2cc(-c3cc(C(F)(F)F)c4c(N)ncnn34)ccc2C#N)C(=O)C1(C)C`, for which the remaining at 10 min, 0.5 µM in data set [1] amounted to 90%; in data set [2] it was 43%; in [3] it was 23%.
As to `CC(=O)N1CCN(c2cc(-c3cc(Cl)c4c(N)ncnn34)ccc2S(C)(=O)=O)C(=O)C1(C)C`, the remaining at 10 min, 0.5 µM in data set [1] was 100%; in [2] it was 100%; in data set [3], 84%.
For `CC(=O)N1CCN(c2cccc(-c3cc(Cl)c4c(N)ncnn34)c2)C(=O)C1(C)C`, the remaining at 10 min, 0.5 µM in data set [1] was found to be 100%; in [2], 57%; in [3], 17%. The half-life at 0.5 µM is more than 120 min in data set [4], 16 min in data set [5] and 4 min in [6]. The AUC(0-t) at 24 h is 2.9 µM·h in data set [7] and 17 µM·h in [8].
As to `CC(=O)N1CCN(c2cccc(-c3cc(-c4cnn(C5CC5)c4)c4c(N)ncnn34)c2)C(=O)C1(C)C`, the concentration in data set [9] peaked (Cmax) at 470 nM. In data set [10], this molecule yielded an AUC(0-t) at 24 h of 1.1 µM·h.
`CC(=O)N1CCN(c2cccc(-c3cc(Cl)c4c(N)ncnn34)c2C)C(=O)C1(C)C`: the remaining at 10 min, 0.5 µM is 84% in data set [1], 19% in data set [2] and 1% in data set [3].
Consider `CC(=O)N1CCN(c2cc(-c3cc(C(F)(F)F)c4c(N)ncnn34)ccc2C(F)(F)F)C(=O)C1(C)C`, for which the remaining at 10 min, 0.5 µM in data set [1] was determined as 70%; in data set [2], 77%; in data set [3], 99%.
For the molecule `CC(=O)N1C[C@@H](C)N(c2cc(-c3cc(Cl)c4c(N)ncnn34)ccc2C#N)C(=O)C1(C)C`, the results for the remaining at 10 min, 0.5 µM in data set [1], in data set [2] and in data set [3] were 82%, 59% and 22%, respectively.
For `CC(=O)N1CCN(c2cc(C)cc(-c3cc(Cl)c4c(N)ncnn34)c2)C(=O)C1(C)C`, the remaining at 10 min, 0.5 µM in data set [1] amounted to 92%; in data set [2] it was 100%; in data set [3] it was 45%.
Turning to `CC(=O)N1CCN(c2cc(-c3cc(Cl)c4c(N)ncnn34)ccc2Cl)C(=O)C1(C)C`, the remaining at 10 min, 0.5 µM in data set [1] turned out to be 85%; in [2], 52%; in data set [3], 67%.
Regarding `COc1ccc(-c2cc(C(F)(F)F)c3c(N)ncnn23)cc1N1CCN(C(C)=O)C(C)(C)C1=O`, the results for the remaining at 10 min, 0.5 µM in [1], in data set [2] and in [3] were 95%, 100% and 100%, respectively.
As to `CC(=O)N1CCN(c2cc(-c3cc(C(F)(F)F)c4c(N)ncnn34)ccc2C(C)O)C(=O)C1(C)C` (racemic), the remaining at 10 min, 0.5 µM in data set [1], in data set [2] and in [3] was 100% in each case.
In the case of `CC(=O)N1CCN(c2cc(-c3cc(Cl)c4c(N)ncnn34)ccc2C(C)O)C(=O)C1(C)C` (racemic), the remaining at 10 min, 0.5 µM in data set [1], in data set [2] and in [3] was 100% in each case.
